Assay results taken from paper PMC8618442, “Solubility of Cinnarizine in (Transcutol + Water) Mixtures: Determination, Hansen Solubility Parameters, Correlation, and Thermodynamics” (Molecules, 2021).
Converted amounts (≈) assume the structure as drawn. Like-named read-outs stand apart in the source and are kept apart here.

What was measured:
[1] = design: method as in doi:10.1021/acs.jced.5b00075; conditions: cited from earlier work
[2] = design: method as in PMID 25478230; conditions: cited from earlier work
[3] = Shake-flask equilibrium solubility of CNZ in {TP + water} mixtures and neat solvents (HPLC at 253 nm); assay type: physicochemical; conditions: 0.1 MPa
Description: Using a Digital Analytical Balance (Mettler Toledo, Greifensee, Switzerland) with a sensitivity of 0.10 mg, all {TP (1) + water (2)} combinations were created on a mass basis. The mass fraction of TP used to make various {TP (1) + water (2)} compositions ranged from 0.10–0.90. Three replicates of each {TP (1) + water (2)} composition were made.
Three repetitions of each experiment were carried out. Inside the Biological Shaker (Julabo, PA, USA), the acquired samples were saturated for three days to achieve equilibrium. After reaching equilibrium, the saturated samples were withdrawn from the shaker and centrifuged at 5000 rpm.

[4] = Apparent thermodynamic analysis of CNZ dissolution (van't Hoff and Gibbs equations); assay type: physicochemical
Description: At the mean harmonic temperature (Thm), all apparent thermodynamic parameters were examined. The Thm was calculated using the usual formula [27]. […] The van’t Hoff and Gibbs equations were used to conduct this analysis.

[5] = cited from earlier work
[6] = TP + water, w1 = 0.1, Thm = 303.0 K
[7] = TP + water, w1 = 0.2, Thm = 303.0 K
[8] = TP + water, w1 = 0.3, Thm = 303.0 K
[9] = TP + water, w1 = 0.4, Thm = 303.0 K
[10] = TP + water, w1 = 0.5, Thm = 303.0 K
[11] = TP + water, w1 = 0.6, Thm = 303.0 K
[12] = TP + water, w1 = 0.7, Thm = 303.0 K
[13] = TP + water, w1 = 0.8, Thm = 303.0 K
[14] = TP + water, w1 = 0.9, Thm = 303.0 K
[15] = w1 = 0.0 (neat water), Thm = 303.0 K
[16] = w1 = 1.0 (neat TP), Thm = 303.0 K

## C(=C\c1ccccc1)/CN1CCN(C(c2ccccc2)c2ccccc2)CC1 [CNZ, 1-benzhydryl-4-[(E)-3-phenylprop-2-enyl]piperazine]
[1]; 298.3 K
  Mole fraction solubility in water: 6.63 × 10^−8 mole fraction
[1]; 303.0 K
  Mole fraction solubility in water: 7.71 × 10^−8 mole fraction
[1]; 307.8 K
  Mole fraction solubility in water: 9.35 × 10^−8 mole fraction
[2]; pH = 2.0, 310.2 K
  Solubility in aqueous buffer: 290 µg/mL (≈ 787 µM)
[2]; pH = 5.0, 310.2 K
  Solubility in aqueous buffer: 17 µg/mL (≈ 46.1 µM)
[2]; pH = 6.5, 310.2 K
  Solubility in aqueous buffer: 2 µg/mL (≈ 5.43 µM)
[3]; TP + water, w1 = 0.1, T = 293.2 K
  Solubility (xe) in mole fraction: 1.66 × 10^−7 mole fraction
[3]; TP + water, w1 = 0.1, T = 298.2 K
  Solubility (xe) in mole fraction: 2.30 × 10^−7 mole fraction
[3]; TP + water, w1 = 0.1, T = 303.2 K
  Solubility (xe) in mole fraction: 3.16 × 10^−7 mole fraction
[3]; TP + water, w1 = 0.1, T = 308.2 K
  Solubility (xe) in mole fraction: 3.91 × 10^−7 mole fraction
[3]; TP + water, w1 = 0.1, T = 313.2 K
  Solubility (xe) in mole fraction: 5.30 × 10^−7 mole fraction
[3]; TP + water, w1 = 0.2, T = 293.2 K
  Solubility (xe) in mole fraction: 6.50 × 10^−7 mole fraction
[3]; TP + water, w1 = 0.2, T = 298.2 K
  Solubility (xe) in mole fraction: 8.87 × 10^−7 mole fraction
[3]; TP + water, w1 = 0.2, T = 303.2 K
  Solubility (xe) in mole fraction: 1.23 × 10^−6 mole fraction
[3]; TP + water, w1 = 0.2, T = 308.2 K
  Solubility (xe) in mole fraction: 1.51 × 10^−6 mole fraction
[3]; TP + water, w1 = 0.2, T = 313.2 K
  Solubility (xe) in mole fraction: 1.95 × 10^−6 mole fraction
[3]; TP + water, w1 = 0.3, T = 293.2 K
  Solubility (xe) in mole fraction: 2.64 × 10^−6 mole fraction
[3]; TP + water, w1 = 0.3, T = 298.2 K
  Solubility (xe) in mole fraction: 3.50 × 10^−6 mole fraction
[3]; TP + water, w1 = 0.3, T = 303.2 K
  Solubility (xe) in mole fraction: 4.49 × 10^−6 mole fraction
[3]; TP + water, w1 = 0.3, T = 308.2 K
  Solubility (xe) in mole fraction: 5.35 × 10^−6 mole fraction
[3]; TP + water, w1 = 0.3, T = 313.2 K
  Solubility (xe) in mole fraction: 7.00 × 10^−6 mole fraction
[3]; TP + water, w1 = 0.4, T = 293.2 K
  Solubility (xe) in mole fraction: 1.12 × 10^−5 mole fraction
[3]; TP + water, w1 = 0.4, T = 298.2 K
  Solubility (xe) in mole fraction: 1.42 × 10^−5 mole fraction
[3]; TP + water, w1 = 0.4, T = 303.2 K
  Solubility (xe) in mole fraction: 1.72 × 10^−5 mole fraction
[3]; TP + water, w1 = 0.4, T = 308.2 K
  Solubility (xe) in mole fraction: 2.09 × 10^−5 mole fraction
[3]; TP + water, w1 = 0.4, T = 313.2 K
  Solubility (xe) in mole fraction: 2.62 × 10^−5 mole fraction
[3]; TP + water, w1 = 0.5, T = 293.2 K
  Solubility (xe) in mole fraction: 4.24 × 10^−5 mole fraction
[3]; TP + water, w1 = 0.5, T = 298.2 K
  Solubility (xe) in mole fraction: 5.26 × 10^−5 mole fraction
[3]; TP + water, w1 = 0.5, T = 303.2 K
  Solubility (xe) in mole fraction: 6.34 × 10^−5 mole fraction
[3]; TP + water, w1 = 0.5, T = 308.2 K
  Solubility (xe) in mole fraction: 7.33 × 10^−5 mole fraction
[3]; TP + water, w1 = 0.5, T = 313.2 K
  Solubility (xe) in mole fraction: 9.22 × 10^−5 mole fraction
[3]; TP + water, w1 = 0.6, T = 293.2 K
  Solubility (xe) in mole fraction: 1.73 × 10^−4 mole fraction
[3]; TP + water, w1 = 0.6, T = 298.2 K
  Solubility (xe) in mole fraction: 2.10 × 10^−4 mole fraction
[3]; TP + water, w1 = 0.6, T = 303.2 K
  Solubility (xe) in mole fraction: 2.44 × 10^−4 mole fraction
[3]; TP + water, w1 = 0.6, T = 308.2 K
  Solubility (xe) in mole fraction: 2.77 × 10^−4 mole fraction
[3]; TP + water, w1 = 0.6, T = 313.2 K
  Solubility (xe) in mole fraction: 3.36 × 10^−4 mole fraction
[3]; TP + water, w1 = 0.7, T = 293.2 K
  Solubility (xe) in mole fraction: 6.89 × 10^−4 mole fraction
[3]; TP + water, w1 = 0.7, T = 298.2 K
  Solubility (xe) in mole fraction: 8.00 × 10^−4 mole fraction
[3]; TP + water, w1 = 0.7, T = 303.2 K
  Solubility (xe) in mole fraction: 9.22 × 10^−4 mole fraction
[3]; TP + water, w1 = 0.7, T = 308.2 K
  Solubility (xe) in mole fraction: 1.05 × 10^−3 mole fraction
[3]; TP + water, w1 = 0.7, T = 313.2 K
  Solubility (xe) in mole fraction: 1.23 × 10^−3 mole fraction
[3]; TP + water, w1 = 0.8, T = 293.2 K
  Solubility (xe) in mole fraction: 2.81 × 10^−3 mole fraction
[3]; TP + water, w1 = 0.8, T = 298.2 K
  Solubility (xe) in mole fraction: 3.17 × 10^−3 mole fraction
[3]; TP + water, w1 = 0.8, T = 303.2 K
  Solubility (xe) in mole fraction: 3.53 × 10^−3 mole fraction
[3]; TP + water, w1 = 0.8, T = 308.2 K
  Solubility (xe) in mole fraction: 3.90 × 10^−3 mole fraction
[3]; TP + water, w1 = 0.8, T = 313.2 K
  Solubility (xe) in mole fraction: 4.43 × 10^−3 mole fraction
[3]; TP + water, w1 = 0.9, T = 293.2 K
  Solubility (xe) in mole fraction: 1.12 × 10^−2 mole fraction
[3]; TP + water, w1 = 0.9, T = 298.2 K
  Solubility (xe) in mole fraction: 1.25 × 10^−2 mole fraction
[3]; TP + water, w1 = 0.9, T = 303.2 K
  Solubility (xe) in mole fraction: 1.38 × 10^−2 mole fraction
[3]; TP + water, w1 = 0.9, T = 308.2 K
  Solubility (xe) in mole fraction: 1.48 × 10^−2 mole fraction
[3]; TP + water, w1 = 0.9, T = 313.2 K
  Solubility (xe) in mole fraction: 1.62 × 10^−2 mole fraction
[3]; w1 (TP mass fraction) = 0.0 (neat water), T = 293.2 K
  Solubility (xe) in mole fraction: 3.91 × 10^−8 mole fraction
[3]; w1 = 0.0 (neat water), T = 298.2 K
  Solubility (xe) in mole fraction: 5.67 × 10^−8 mole fraction
[3]; w1 = 0.0 (neat water), T = 303.2 K
  Solubility (xe) in mole fraction: 7.82 × 10^−8 mole fraction
[3]; w1 = 0.0 (neat water), T = 308.2 K
  Solubility (xe) in mole fraction: 9.78 × 10^−8 mole fraction
[3]; w1 = 0.0 (neat water), T = 313.2 K
  Solubility (xe) in mole fraction: 1.42 × 10^−7 mole fraction
[3]; w1 = 1.0 (neat TP), T = 293.2 K
  Solubility (xe) in mole fraction: 4.52 × 10^−2 mole fraction
[3]; w1 = 1.0 (neat TP), T = 298.2 K
  Solubility (xe) in mole fraction: 4.78 × 10^−2 mole fraction
[3]; w1 = 1.0 (neat TP), T = 303.2 K
  Solubility (xe) in mole fraction: 5.08 × 10^−2 mole fraction
[3]; w1 = 1.0 (neat TP), T = 308.2 K
  Solubility (xe) in mole fraction: 5.44 × 10^−2 mole fraction
[3]; w1 = 1.0 (neat TP), T = 313.2 K
  Solubility (xe) in mole fraction: 5.83 × 10^−2 mole fraction
[4]; [6]
  Apparent standard Gibbs energy (ΔsolnG°): 9.039 kcal/mol
  Apparent standard enthalpy (ΔsolnH°): 10.41 kcal/mol
  Apparent standard entropy (ΔsolnS°): 18.92 J mol^−1 K^−1
[4]; [7]
  Apparent standard Gibbs energy (ΔsolnG°): 8.229 kcal/mol
  Apparent standard enthalpy (ΔsolnH°): 9.964 kcal/mol
  Apparent standard entropy (ΔsolnS°): 23.94 J mol^−1 K^−1
[4]; [8]
  Apparent standard Gibbs energy (ΔsolnG°): 7.433 kcal/mol
  Apparent standard enthalpy (ΔsolnH°): 8.662 kcal/mol
  Apparent standard entropy (ΔsolnS°): 16.96 J mol^−1 K^−1
[4]; [9]
  Apparent standard Gibbs energy (ΔsolnG°): 6.606 kcal/mol
  Apparent standard enthalpy (ΔsolnH°): 7.596 kcal/mol
  Apparent standard entropy (ΔsolnS°): 13.68 J mol^−1 K^−1
[4]; [10]
  Apparent standard Gibbs energy (ΔsolnG°): 5.827 kcal/mol
  Apparent standard enthalpy (ΔsolnH°): 6.879 kcal/mol
  Apparent standard entropy (ΔsolnS°): 14.50 J mol^−1 K^−1
[4]; [11]
  Apparent standard Gibbs energy (ΔsolnG°): 5.014 kcal/mol
  Apparent standard enthalpy (ΔsolnH°): 5.853 kcal/mol
  Apparent standard entropy (ΔsolnS°): 11.57 J mol^−1 K^−1
[4]; [12]
  Apparent standard Gibbs energy (ΔsolnG°): 4.209 kcal/mol
  Apparent standard enthalpy (ΔsolnH°): 5.21 kcal/mol
  Apparent standard entropy (ΔsolnS°): 13.82 J mol^−1 K^−1
[4]; [13]
  Apparent standard Gibbs energy (ΔsolnG°): 3.401 kcal/mol
  Apparent standard enthalpy (ΔsolnH°): 4.085 kcal/mol
  Apparent standard entropy (ΔsolnS°): 9.464 J mol^−1 K^−1
[4]; [14]
  Apparent standard Gibbs energy (ΔsolnG°): 2.588 kcal/mol
  Apparent standard enthalpy (ΔsolnH°): 3.365 kcal/mol
  Apparent standard entropy (ΔsolnS°): 10.72 J mol^−1 K^−1
[4]; [15]
  Apparent standard Gibbs energy (ΔsolnG°): 9.876 kcal/mol
  Apparent standard enthalpy (ΔsolnH°): 11.39 kcal/mol
[4]; [16]
  Apparent standard Gibbs energy (ΔsolnG°): 1.791 kcal/mol
  Apparent standard enthalpy (ΔsolnH°): 2.323 kcal/mol
  Apparent standard entropy (ΔsolnS°): 7.346 J mol^−1 K^−1
[5]
  Solubility in water: practically insoluble in water
